One substance from patent US7591997B2, “Method for determining the susceptibility of a subject to infection” (Mabtech AB, priority 2002, dated 2009) can be followed below.

In the assay the test system is Actinobacillus actinomycetemcomitans. Nature of the assay: Standard colony forming units (CFU) assay of LL-37 on A. actinomycetemcomitans. The assay is classed as cell-based. As to the method:
In this study we used an isolate of Actinobacillus actinomycetemcomitans from the oral cavitas of patient (A), kindly provided by Dr A. Johansson (Umeå). Bacteria were routinely grown on tryptic soy agar (Difco) supplemented with 0.5% yeast extract (TSBY) at microaerophilic conditions. The effect of LL-37 on A. actinomycetemcomitans was tested in a standard colony forming units (CFU)-assay (Tanaka et al., Oral Microbiol Immunol. 2000;15(4):226-31) by incubating 10^5 bacteria for 90 min with 20 μg/ml of synthetic LL-37 in 10 mM phosphate buffer pH 7.2 with 1% TSBY.

Turning to “LL-37: Human cathelicidin-type antibacterial peptide encoded by the CAMP gene, SEQ ID NO: 3; released from the proform cathelin-LL-37 (LLGDFFRKSKEKIGKEFKRIVQRIKDFLRNLVPRTES; homo sapiens)”, the “reduction in colony counts” value (20 μg/ml LL-37 for 90 min, 10^5 bacteria, isolate from patient (A), 10 mM phosphate buffer pH 7.2 with 1% TSBY) is recorded as 3-4 log. For the same substance, under “A. actinomycetemcomitans isolated from patient (A)”, the “effect on growth of the bacteria in vitro” value was “could stop the growth”.
